# According to patent US20130253039A1, “COLORECTAL CANCER TREATMENTS AND DIAGNOSTIC IMPROVEMENTS” (priority 2012, published 2013):
# Like-named read-outs stand apart in the source and are kept apart here.
# Columns and labels:
# [1] = tested on: hNMNAT2 transfected HT29 cell line; test: Cell-kill assay, hNMNAT2 transfected HT29; details: Homo sapiens, HT-29, 72 h, read-out: Cytotoxicity EC50, hNMNAT2
# Experimental: (§1) Colorectal cancer cells were transfected with pTracer hNMNAT2 and the control plasmid pTracerEFV5/HisA using the lipofectamine reagent (Invitrogen, Carlsbad, Calif.). Zeocin resistant green fluorescence protein (GFP) expressing clones were further analyzed by Fluorescence-activated cell sorting (Becton Dickinson Immunocytometry Systems, San Jose, Calif.).
# (§2) Colorectal cancer cells (1500 cells/0.1 ml) were dispensed into 96-well tissue culture plates and 24 h later treated with serial dilutions of free tiazofurin or nanoparticles containing tiazofurin (for nanoparticle treatment, cells were incubated for 2 h with gentle shaking, aspirated and fresh media was added) and further incubated for 72 h at 3TC. After incubation, 20 μl of 3-(4,5-dimethylthiazol-2-yl)-5-(3-carboxymethoxyphenyl)-2-(4-sulfophenyl)-2H-tetrazolium reagent was added to each well, mixed, plates were further incubated for 2 h and color developed was read at 490 nm using a microplate spectrophotometer (Spectra MAX250, Molecular Devices, Sunnnyvale, Calif.) and cell-kill data were analyzed by Graphpad Prism 4 software (GraphPad Software, San Diego, Calif.).
# [2] = tested on: human colorectal carcinoma; details: mouse, in vivo; cited from earlier work
# TAD concentration = TAD concentration in colorectal cancer cells after tiazofurin treatment (HPLC); format: cell-based, human; details: 4 h
# Experimental: Panels A, B, D, and E, triplicate flasks were set-up with each cell line, treated with tiazofurin (0, 150 and 300 μM) for Caco2 and (0, 50 and 150 μM) for HT29 for 4 h and the cells were processed as detailed in Methods section below. The y-axis of the bar graph indicate the GTP concentration in nmol per million cells while the x-axis gives the tiazofurin concentration used; Panels C and F, effect of TAD concentration following tiazofurin treatment. Triplicate flasks were set-up with each cell line, treated with tiazofurin Caco2 (300 μM), and HT29 (150 μM) for 4 h and processed as detailed in Methods section below. The y-axis indicates the TAD concentration in nmol per million cells. ? […]
# For the determination of GTP and TAD, colorectal cancer cells were treated with concentration of tiazofurin (specified in legends to figures) or with saline for 4 h and cell extracts were prepared as detailed earlier. An aliquot of neutralized extract was injected into Phenomenex Gemini 250×4.6 mm, 5μ C18 110A column (Torrance, Calif.) maintained at 19° C., preequilibrated with buffer A (0.1 M potassium phosphate, pH 6.0) and then subjected to a stepwise gradient of buffer A with 20% acetonitrile, pH 6.0 over 30 min and analyzed on Shimadzu High Performance Liquid Chromatography (Canby, Oreg.). […]
# IMPDH = target: T1, IMPDH (Homo sapiens, UniProt P12268); test: IMPDH activity in Caco2 cell lines after tiazofurin treatment; format: cell-based; details: 4 h
# T1 construct: endogenous in cells; host or cells: Caco2 (wild-type and hNMNAT2-transfected)
# T1 sequence (P12268 2-514): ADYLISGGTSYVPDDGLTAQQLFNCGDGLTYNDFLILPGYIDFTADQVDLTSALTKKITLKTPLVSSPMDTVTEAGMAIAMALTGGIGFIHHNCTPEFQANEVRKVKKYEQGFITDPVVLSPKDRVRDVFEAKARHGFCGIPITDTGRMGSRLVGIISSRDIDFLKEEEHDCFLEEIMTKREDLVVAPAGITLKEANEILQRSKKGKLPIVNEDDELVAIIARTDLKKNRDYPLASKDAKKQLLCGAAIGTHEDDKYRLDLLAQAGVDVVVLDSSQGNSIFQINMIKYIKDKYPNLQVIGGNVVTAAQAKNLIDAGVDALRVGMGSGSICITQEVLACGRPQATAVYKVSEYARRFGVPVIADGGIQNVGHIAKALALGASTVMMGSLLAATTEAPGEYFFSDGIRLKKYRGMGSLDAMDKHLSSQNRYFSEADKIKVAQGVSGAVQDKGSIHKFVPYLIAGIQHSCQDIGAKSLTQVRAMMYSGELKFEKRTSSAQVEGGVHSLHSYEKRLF
# Experimental: Panel A, Cells were Processed and NAD levels were determined in the cytoplasmic extracts as described in the Methods section, below. […] Triplicate flasks were set-up with each cell line and incubated with saline or tiazofurin (100-300 μM) for 4 h at 3TC. Cells were processed as described in the Methods section below. Basal IMPDH activity in saline treated control was 1.85 […] of XMP synthesized/mg protein/min; Panel D, NMNAT enzyme activity in wild-type and hNMNAT2 transfected Caco2 cell lines. The y-axis of the bar graph indicates the NMNAT activity in unit/mg of protein; Panel E, hNMNAT2 expression in cytoplasm, nucleus, and mitochondria. Cytoplasmic, nuclear, and mitochondrial proteins were isolated as detailed in the Methods section below and expression of hNMNAT2 protein was determined by Western blot analysis in wild-type and hNMNAT2 transfected caco2 cell lines; Panel F, silencing of hNMNAT2 expression in hNMNAT2 overexpressing cell line. hNMNAT2 expression in transfected Caco2 cell lines was silenced by shRNA-NMNAT2 and there expression was determined by Western blot analysis; Panel G, the wild-type, hNMNAT2 overexpressing, and hNMNAT2 overexpressing Caco2 cell lines were subjected to cell-kill by tiazofurin. ? […]
# Colorectal cancer cells were extracted and IMPDH activity was assayed as described and activity is expressed as nmol/min/mg protein [8]. […]
# colorectal cancer = details: 21 patients, bolus once a day for 5 days; cited from earlier work
# HT29 = test: Cell-kill assay, wild-type HT29; format: cell-based, human; details: for EC50: wild-type HT29, free tiazofurin, 72 h, read-out: Cytotoxicity EC50, Wild-type
# Experimental: (§3) Human colorectal cancer cell lines HCT15, HCT116, HT29, HCC2998, and Caco2 were obtained from the National Cancer Institute, Bethesda, Md., USA, maintained in 5% CO2 at 3TC in minimum essential media containing 2.3 μM folic acid (MEM, Life Technologies, Inc., Grand Island, N.Y.) supplemented with 1% penicillin, streptomycin, amphotericin B (Invitrogen, Carlsbad, Calif.), and 10% fetal bovine serum (FBS) for all cell lines except Caco2, which required 20% FBS for optimal growth. Caco2 and HT29 cells were adapted to grow in a low-folate (LF) condition by step-wise reduction of the folate concentration in the medium and finally were stably adapted to grow in folate-free MEM supplemented with 20% and 10% FBS, respectively. The complete LF medium with 20% FBS for Caco2 cells contained 18 nM 5-methyltetrahydrofolate and the LF medium with 10% FBS for HT29 cells contained 9 nM 5-methyltetrahydrofolate. The cells were cultured in low 5-methyltetrahydrofolate conditioned medium for at least 20 generations before they were used in the experiments to promote full expression of folate receptors, and logarithmically growing cells were utilized for all studies.
# Caco2 = test: Cell-kill assay, wild-type Caco2; format: cell-based, human
# Experimental: as §3
# [3] = tested on: hNMNAT2-over-expressed HT29; test: Antitumor activity in athymic mice with subcutaneous hNMNAT2-over-expressed HT29 tumors; format: in vivo
# Experimental: (§4) In vivo studies were conducted studies to compare antitumor activity of tiazofurin in athymic mice implanted subcutaneously with wild-type and hNMNAT2-over-expressed HT29 cell lines. Groups of five female athymic mice 6-8 weeks old, weighing 16-18 grams, obtained from Harlan Sprague Dawley, Indianapolis, Ind., were injected with wild-type or hNMNAT2-over-expressed HT29 (2×10^6 cells/mice), and tumors were allowed to establish for 7 days. Mice were then treated intraperitoneally with saline or tiazofurin once-a-day for 10 days (QD10) and tumor volume and weights were monitored twice a week. […] There was a dose-dependent decrease in tumor volume following tiazofurin treatment in mice bearing wild-type HT29 (70% decrease in tumor volume at 200 mg/kg and 50% decrease in tumor volume at 50 mg/kg). […] These studies indicate that hNMNAT2-gene-targeted tiazofurin therapy for colorectal cancer is feasible. Further decreasing the dose of tiazofurin will be possible by targeting FR and/or CEA and encapsulating tiazofurin in folate-tethered nanoparticles. Further targeting would translate to additional lowering of tiazofurin induced side-effects.
# GTP pools = test: GTP concentration in colorectal cancer cells after tiazofurin treatment (HPLC); format: cell-based, human; details: 4 h
# Experimental: The y-axis of the bar graph indicate the GTP concentration in nmol per million cells while the x-axis gives the tiazofurin concentration used; Panels C and F, effect of TAD concentration following tiazofurin treatment. Triplicate flasks were set-up with each cell line, treated with tiazofurin Caco2 (300 μM), and HT29 (150 μM) for 4 h and processed as detailed in Methods section below. The y-axis indicates the TAD concentration in nmol per million cells. ? Wild-type (WT), ? hNMNAT2 transfected cell line. • *Denotes statistical significance (P<0.05) NS Denotes not significant
# For the determination of GTP and TAD, colorectal cancer cells were treated with concentration of tiazofurin (specified in legends to figures) or with saline for 4 h and cell extracts were prepared as detailed earlier. An aliquot of neutralized extract was injected into Phenomenex Gemini 250×4.6 mm, 5μ C18 110A column (Torrance, Calif.) maintained at 19° C., preequilibrated with buffer A (0.1 M potassium phosphate, pH 6.0) and then subjected to a stepwise gradient of buffer A with 20% acetonitrile, pH 6.0 over 30 min and analyzed on Shimadzu High Performance Liquid Chromatography (Canby, Oreg.). Under these conditions GTP eluted at 10 min separated from other nucleotides.
# HCT116 = test: Cell-kill assay, HCT116; format: cell-based; details: Homo sapiens, HCT-116; free tiazofurin, 72 h
# Experimental: as §3
# [4] = tested on: hNMNAT-2-shRNA knockdown cells (Caco2); test: Cell-kill assay, hNMNAT-2-shRNA knockdown Caco2 cells; format: cell-based; details: Homo sapiens, Caco-2; hNMNAT2 overexpressing Caco2 silenced with hNMNAT2-shRNA, puromycin selected
# Source text: Colorectal cancer Caco2 cells overexpressing hNMNAT2 were transfected with control shRNA plasmid and NMNAT2 small hairpin shRNA plasmid (sc-62693-SH: NMNAT2 shRNA Plasmid (h) is a pool of 3 different shRNA plasmids with a hairpin sequence: […] (SEQ ID NO: 3) and sc-62693-SHA: 5′-GUAGAAAGUGAGACUCAAUtt-3′ (SEQ ID NO: 4) and 5′-AUUGAGUCUCACUUUCUACtt-3′ (SEQ ID NO: 5); sc-62693-SHB: 5′-CCUUAGGAAUAGCAUUGUAtt-3′ (SEQ ID NO: 6) and 5′-UACAAUGCUAUUCCUAAGGtt-3′ (SEQ ID NO: 7); sc-62693-SHC: 5′-GCUCUUUCCCUCAACCUUAtt-3′ (SEQ ID NO: 8) and 5′-UAAGGUUGAGGGAAAGAGCtt-3′ (SEQ ID NO: 9). Transfection was conducted for 8 h as per manufacturer's instructions (Santa Cruz Biotechnology, Inc., Santa Cruz, Calif.). Puromycin resistant clones were selected and knockdown of hNMNAT2 was confirmed by Western blot analyses.
# [5] = tested on: hNMNAT2 transfected Caco2 cell line; test: Cell-kill assay, hNMNAT2 transfected Caco2; details: Homo sapiens, Caco-2, 72 h, read-out: Cytotoxicity EC50, hNMNAT2
# Experimental: as §1, §2
# HCC2998 = test: Cell-kill assay, HCC2998; format: cell-based; details: Homo sapiens, HCC 2998; free tiazofurin, 72 h
# Experimental: as §3
# HCT15 = test: Cell-kill assay (dye-based cell proliferation), HCT15; details: Homo sapiens, HCT-15; free tiazofurin, 72 h
# Experimental: as §3
# wild-type HT29 = test: Antitumor activity in athymic mice with subcutaneous wild-type HT29 tumors; format: in vivo
# Experimental: as §4
# [6] = dose of 1,100 mg/m^2, patients; cited from earlier work
# [7] = 50 mg/kg intraperitoneally once-a-day for 10 days
# [8] = 200 mg/kg intraperitoneally once-a-day for 10 days
compound,measurement,setting,value
"NC(=O)c1csc([C@@H]2O[C@H](CO)[C@@H](O)[C@H]2O)n1 [tiazofurin, 2-R-D-ribofuranosylthiazole-4-carboxamide]",EC50,[1],80 ± 3 µM
same,Antitumor activity,[2],significant antitumor activity
same,Fold higher concentration of TAD in hNMNAT2 overexpressing vs wild-type cell line,"TAD concentration; Caco2, tiazofurin 300 μM",2 fold
same,Fold higher levels of TAD in hNMNAT2-overexpressing vs wild-type cell line,"TAD concentration; HT29, tiazofurin 150 μM",2 fold
same,EC50,"IMPDH; hNMNAT2 transfected Caco2, tiazofurin 100-300 μM, read-out: EC50 of decrease in IMPDH activity",250 µM
same,Effect on IMPDH activity,"IMPDH; wild-type Caco2, sub-lethal tiazofurin 100-300 μM",no reduction in IMPDH activity
same,Antitumor activity,colorectal cancer,no significant antitumor activity
same,EC50,"HT29; Homo sapiens, HT-29, 72 h",125 µM
same,EC50,HT29,130 ± 8 µM
same,Influence of silencing hNMNAT3 on cell-kill by tiazofurin,"HT29; wild-type and hNMNAT2 overexpressing HT29, siRNA-hNMNAT3 24 h",did not influence cell-kill by tiazofurin
same,Influence of silencing hNMNAT1 on cell-kill by tiazofurin,"HT29; wild-type or hNMNAT2-overexpressing HT29, siRNA-hNMNAT1 day 3",had no effect on tiazofurin cell-kill
same,EC50,"Caco2; Homo sapiens, Caco-2, 72 h, wild-type Caco2, free tiazofurin, 72 h, read-out: Cytotoxicity EC50, Wild-type",450 µM
same,Influence of silencing hNMNAT3 on cell-kill by tiazofurin,"Caco2; wild-type and hNMNAT2 overexpressing Caco2, siRNA-hNMNAT3 24 h",no change in the dose of tiazofurin required to provide 50% cell-kill
same,Influence of silencing hNMNAT1 on cell-kill by tiazofurin,"Caco2; wild-type or hNMNAT2 overexpressing Caco2, siRNA-hNMNAT1 day 3",did not have any influence on cell-kill by tiazofurin
same,Effect on tumor,[3]; [7],complete disappearance of tumor
same,Effect on tumor,[3]; [8],complete disappearance of tumor
same,Reduction in GTP levels,"GTP pools; hNMNAT2-transfected Caco2, 150 μM tiazofurin",40%
same,Reduction in GTP levels,"GTP pools; hNMNAT2-transfected Caco2, 300 μM tiazofurin",60%
same,Reduction in GTP levels,"GTP pools; hNMNAT2-transfected HT29, 25 μM tiazofurin",21%
same,Reduction in GTP levels,"GTP pools; hNMNAT2-transfected HT29, 100 μM tiazofurin",47%
same,Reduction in GTP pools,"GTP pools; wild-type Caco-2, 150 μM tiazofurin",29%
same,Reduction in GTP pools,"GTP pools; wild-type Caco-2, 300 μM tiazofurin",45%
same,GTP reduction,"GTP pools; wild-type HT29, 25 μM tiazofurin",did not result in GTP reduction
same,GTP reduction,"GTP pools; wild-type HT29, 100 μM tiazofurin",22%
same,EC50,HCT116,72.6 µM
same,EC50,[4],380 µM
same,EC50,[5],225 µM
same,EC50,HCC2998,274 µM
same,EC50,HCT15,63.9 µM
same,Decrease in tumor volume,wild-type HT29; [7],50%
same,Decrease in tumor volume,wild-type HT29; [8],70%
same,Peak plasma concentration,[6],240 µM
